According to US20040038216A1, “Method for the structural determination of ligands bound to macromolecular targets by nuclear magnetic resonance” (priority 2002, published 2004):
Marks after values point to notes of the source that are not given here.

What was measured:
Bcl-xL [1] = target: Bcl-xL (Homo sapiens, UniProt Q07817); test: NMR-based screening; type: binding; conditions: independently determined
Protocol: (§1) 500 uL of the ligand solution was transferred to each of 8 NMR tubes (Wilmad). The protein solutions were then added to the NMR tubes to a final protein concentration of 40 uM in the following manner: Sample 1: unlabeled Bcl-xL; Sample 2: U-^2H-Bcl-xL; Sample 3: U-^2H-{^1H-R}-Bcl-xL; Sample 4: U-^2H-{^1H-Y}-Bcl-xL; Sample 5: U-^2H-{^1H-L}-Bcl-xL; Sample 6: U-2H-{^1H-I}-Bcl-xL; Sample 7: U-^2H-{^1H-M}-Bcl-xL; Sample 8: No protein.

Bcl-xL [2] = target: T1, Bcl-xL (Homo sapiens, UniProt Q07817, DEL45-84); test: STD-NMR (saturation transfer difference) spectra on Bcl-xL/ligand complexes; type: binding
T1 construct: deletion mutant of Bcl-xL (that lacks the putative carboxy-terminal transmembrane region and residues 49-88) was used; His tag (C); made in house; host or cells: E. coli BL21(DE3)
T1 sequence (Q07817 with tags, fused parts or gaps DEL45-84 limits assumed): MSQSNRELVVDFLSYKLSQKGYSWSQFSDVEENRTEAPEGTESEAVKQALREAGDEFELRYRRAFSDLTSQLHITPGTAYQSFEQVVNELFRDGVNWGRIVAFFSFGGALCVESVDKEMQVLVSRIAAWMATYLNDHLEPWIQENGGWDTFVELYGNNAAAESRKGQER
Protocol: A sample of unlabeled Bcl-xL as well as samples of perdeuterated Bcl-xL that were selectively protonated at the specific amino acids Arg, Tyr, Leu, Ile, and Met were prepared in accordance with the procedures of Example 1. Samples of 200 uM 4-(4-fluorophenyl)benzoic acid (3, Array), [drawing 1]
as §1
STD-NMR spectra (Mayer and Meyer, J. Am. Chem. Soc. 2001, 123, 6108-6117) were determined on each of the eight samples. All NMR experiments were performed at 300K on a Bruker Avance DRX500 system equipped with a CryoProbe. The pulse sequence for the ID STD-NMR spectra was identical to that used by Mayer and Meyer (2001) except that a CPMG T2-filter was used instead of a T1p-filter to remove background protein resonances. Subtraction of the on- and off-resonance spectra was performed internally and a WATERGATE sequence was used for suppression of the residual solvent signal. On-resonance irradiation of the protein was performed by using a train of Gauss-shaped pulses of 2.5 ms length separated by a 2.5 ms delay, and alternating on-resonance irradiation was applied at 0.8 and 3.0 ppm. Off-resonance irradiation was applied at −10.0 ppm. 280 shaped pulses were used in the pulse train, leading to a total saturation time of 1.4 s. All spectra were acquired with a 100 ms T2-filter, 1024 complex points, 1024 scans, a ^1H sweep width of 8333 Hz, and a total recycle time of 2.0 s.
All NMR spectra were processed and analyzed on Silicon Graphics computers using standard protocols well-known in the art. STD-NMR spectra for biaryl 3 in the presence of unlabeled Bcl-xL (Sample 1), U-^2H-Bcl-xL (Sample 2), and no protein are shown in FIG. 5. […] Therefore, the signal intensity for each resonance of the biaryl 3 in the presence of unlabeled and perdeuterated protein was taken as the maximum and minimum intensity, respectively, for the NOE in the presence of the selectively protonated samples. The intensity of the NOEs could then be calculated using the following equation, [formula]
where I(norm) is the normalized intensity in the STD-NMR spectrum for a given biaryl resonance, and I(SL), I(^2H), and I(^1H) are the intensities of the resonance in the presence of the selectively protonated, perdeuterated, and unlabeled protein, respectively. The normalized NOE intensities can be visualized by simple subtraction of the STD-NMR spectrum of the ligand in the presence of deuterated protein from each of the selectively protonated samples. In these spectra, it is clearly seen that an arginine residue is in close contact with the benzoic acid portion of 3 (magnetization transfer to HA and HB/C), but not the fluorophenyl portion. It is also clear that a tyrosine and leucine residue is in contact with the fluorophenyl portion of 3 (magnetization transfer to HD and HB/C), but not the benzoic acid portion. Spectra shown in (E) and (F) indicate that no portion of the biaryl is in contact with any isoleucine or methionine residues.
These NOE intensities were then converted into distance restraints for use in structural calculations in the following manner. For any given amino acid type and ligand resonance, normalized NOE intensities less than 5% were treated as having no interaction. Therefore, distances between that ligand atom and all protons on all amino acids of that specific type were set at greater than 5 Å. For NOE intensities greater than 15%, ambiguous distance restraints were assigned. […]

[3] = ligand proton HA, Sample 1 Unlabeled Bcl-xL
[4] = ligand proton HA, Sample 2 U-2H-Bcl-xL
[5] = ligand proton HD, Sample 1 Unlabeled Bcl-xL
[6] = ligand proton HD, Sample 2 U-2H-Bcl-xL
[7] = ligand protons HB/HC, Sample 1 Unlabeled Bcl-xL
[8] = ligand protons HB/HC, Sample 2 U-2H-Bcl-xL

Sequence of Bcl-xL (Homo sapiens, UniProt Q07817) (Q07817 whole entry): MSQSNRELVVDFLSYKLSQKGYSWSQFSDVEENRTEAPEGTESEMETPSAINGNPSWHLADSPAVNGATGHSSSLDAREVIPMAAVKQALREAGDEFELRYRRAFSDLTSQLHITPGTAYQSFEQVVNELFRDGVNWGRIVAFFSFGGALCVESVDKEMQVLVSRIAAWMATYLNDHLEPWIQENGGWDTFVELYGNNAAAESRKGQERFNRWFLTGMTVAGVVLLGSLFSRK

O=C(O)c1ccc(-c2ccc(F)cc2)cc1 [biaryl 3, 4-(4-fluorophenyl)benzoic acid]
binding to Bcl-xL (NMR-based screening) (Bcl-xL [1]): ligand for Bcl-xL | Normalized NOE intensity (Bcl-xL [2]; HA protons, in the presence of U-2H-{1H-Y}-Bcl-xL): 3% | Normalized NOE intensity (Bcl-xL [2]; HD protons, in the presence of U-2H-{1H-Y}-Bcl-xL): 22% | Distance restraint derived from the NOE intensity data (Bcl-xL [2]; ligand proton HA to arginine protons, Sample 3 U-2H-{1H-R}-Bcl-xL): <4^a Å | Distance restraint derived from the NOE intensity data (Bcl-xL [2]; ligand proton HA to isoleucine protons, Sample 6 U-2H-{1H-I}-Bcl-xL): >5 Å | Distance restraint derived from the NOE intensity data (Bcl-xL [2]; ligand proton HA to methionine protons, Sample 7 U-2H-{1H-M}-Bcl-xL): >5 Å | Distance restraint derived from the NOE intensity data (Bcl-xL [2]; ligand proton HA to tyrosine protons, Sample 4 U-2H-{1H-Y}-Bcl-xL): >5 Å | Actual NOE intensity (Bcl-xL [2]; [3]): (175) | Normalized NOE intensity (Bcl-xL [2]; [3]): 100^a | Actual NOE intensity (Bcl-xL [2]; [4]): (17) | Normalized NOE intensity (Bcl-xL [2]; [4]): 0 | Actual NOE intensity (Bcl-xL [2]; ligand proton HA, Sample 3 U-2H-{1H-R}-Bcl-xL): (57) | Actual NOE intensity (Bcl-xL [2]; ligand proton HA, Sample 4 U-2H-{1H-Y}-Bcl-xL): (22) | Actual NOE intensity (Bcl-xL [2]; ligand proton HA, Sample 5 U-2H-{1H-L}-Bcl-xL): (28) | Actual NOE intensity (Bcl-xL [2]; ligand proton HA, Sample 6 U-2H-{1H-I}-Bcl-xL): (18) | Actual NOE intensity (Bcl-xL [2]; ligand proton HA, Sample 7 U-2H-{1H-M}-Bcl-xL): (23) | Distance restraint derived from the NOE intensity data (Bcl-xL [2]; ligand proton HD to leucine protons, Sample 5 U-2H-{1H-L}-Bcl-xL): <3 Å | Actual NOE intensity (Bcl-xL [2]; [5]): (167) | Normalized NOE intensity (Bcl-xL [2]; [5]): 100 | Actual NOE intensity (Bcl-xL [2]; [6]): (28) | Normalized NOE intensity (Bcl-xL [2]; [6]): 0 | Actual NOE intensity (Bcl-xL [2]; ligand proton HD, Sample 3 U-2H-{1H-R}-Bcl-xL): (40) | Actual NOE intensity (Bcl-xL [2]; ligand proton HD, Sample 4 U-2H-{1H-Y}-Bcl-xL): (59) | Actual NOE intensity (Bcl-xL [2]; ligand proton HD, Sample 5 U-2H-{1H-L}-Bcl-xL): (93) | Actual NOE intensity (Bcl-xL [2]; ligand proton HD, Sample 6 U-2H-{1H-I}-Bcl-xL): (40) | Actual NOE intensity (Bcl-xL [2]; ligand proton HD, Sample 7 U-2H-{1H-M}-Bcl-xL): (45) | Distance restraint derived from the NOE intensity data (Bcl-xL [2]; ligand protons HB/HC to arginine protons, Sample 3 U-2H-{1H-R}-Bcl-xL): <5 Å | Distance restraint derived from the NOE intensity data (Bcl-xL [2]; ligand protons HB/HC to isoleucine protons, Sample 6 U-2H-{1H-I}-Bcl-xL): >5 Å | Distance restraint derived from the NOE intensity data (Bcl-xL [2]; ligand protons HB/HC to leucine protons, Sample 5 U-2H-{1H-L}-Bcl-xL): <5 Å | Distance restraint derived from the NOE intensity data (Bcl-xL [2]; ligand protons HB/HC to methionine protons, Sample 7 U-2H-{1H-M}-Bcl-xL): >5 Å | Actual NOE intensity (Bcl-xL [2]; [7]): (200) | Normalized NOE intensity (Bcl-xL [2]; [7]): 100 | Actual NOE intensity (Bcl-xL [2]; [8]): (32) | Normalized NOE intensity (Bcl-xL [2]; [8]): 0 | Actual NOE intensity (Bcl-xL [2]; ligand protons HB/HC, Sample 3 U-2H-{1H-R}-Bcl-xL): (70) | Actual NOE intensity (Bcl-xL [2]; ligand protons HB/HC, Sample 4 U-2H-{1H-Y}-Bcl-xL): (49) | Actual NOE intensity (Bcl-xL [2]; ligand protons HB/HC, Sample 5 U-2H-{1H-L}-Bcl-xL): (71) | Actual NOE intensity (Bcl-xL [2]; ligand protons HB/HC, Sample 6 U-2H-{1H-I}-Bcl-xL): (30) | Actual NOE intensity (Bcl-xL [2]; ligand protons HB/HC, Sample 7 U-2H-{1H-M}-Bcl-xL): (30)
